These results are taken from paper PMC11345841, “Exploring 2-Sulfonylpyrimidine Warheads as Acrylamide Surrogates for Targeted Covalent Inhibition: A BTK Story” (Journal of Medicinal Chemistry, 2024).

Read-outs that look alike come from different tables or passages of the source.

As usually defined, the IC50 is the concentration at which inhibition is half-maximal. Read a high IC50 as a need for much substance.

In assay [1] the target is T1, VEGFR2 (Homo sapiens, UniProt P35968).
T1 construct: purchased Eurofins DiscoverX KINOMEscan (scanTK)
T1 sequence (P35968 20-1356): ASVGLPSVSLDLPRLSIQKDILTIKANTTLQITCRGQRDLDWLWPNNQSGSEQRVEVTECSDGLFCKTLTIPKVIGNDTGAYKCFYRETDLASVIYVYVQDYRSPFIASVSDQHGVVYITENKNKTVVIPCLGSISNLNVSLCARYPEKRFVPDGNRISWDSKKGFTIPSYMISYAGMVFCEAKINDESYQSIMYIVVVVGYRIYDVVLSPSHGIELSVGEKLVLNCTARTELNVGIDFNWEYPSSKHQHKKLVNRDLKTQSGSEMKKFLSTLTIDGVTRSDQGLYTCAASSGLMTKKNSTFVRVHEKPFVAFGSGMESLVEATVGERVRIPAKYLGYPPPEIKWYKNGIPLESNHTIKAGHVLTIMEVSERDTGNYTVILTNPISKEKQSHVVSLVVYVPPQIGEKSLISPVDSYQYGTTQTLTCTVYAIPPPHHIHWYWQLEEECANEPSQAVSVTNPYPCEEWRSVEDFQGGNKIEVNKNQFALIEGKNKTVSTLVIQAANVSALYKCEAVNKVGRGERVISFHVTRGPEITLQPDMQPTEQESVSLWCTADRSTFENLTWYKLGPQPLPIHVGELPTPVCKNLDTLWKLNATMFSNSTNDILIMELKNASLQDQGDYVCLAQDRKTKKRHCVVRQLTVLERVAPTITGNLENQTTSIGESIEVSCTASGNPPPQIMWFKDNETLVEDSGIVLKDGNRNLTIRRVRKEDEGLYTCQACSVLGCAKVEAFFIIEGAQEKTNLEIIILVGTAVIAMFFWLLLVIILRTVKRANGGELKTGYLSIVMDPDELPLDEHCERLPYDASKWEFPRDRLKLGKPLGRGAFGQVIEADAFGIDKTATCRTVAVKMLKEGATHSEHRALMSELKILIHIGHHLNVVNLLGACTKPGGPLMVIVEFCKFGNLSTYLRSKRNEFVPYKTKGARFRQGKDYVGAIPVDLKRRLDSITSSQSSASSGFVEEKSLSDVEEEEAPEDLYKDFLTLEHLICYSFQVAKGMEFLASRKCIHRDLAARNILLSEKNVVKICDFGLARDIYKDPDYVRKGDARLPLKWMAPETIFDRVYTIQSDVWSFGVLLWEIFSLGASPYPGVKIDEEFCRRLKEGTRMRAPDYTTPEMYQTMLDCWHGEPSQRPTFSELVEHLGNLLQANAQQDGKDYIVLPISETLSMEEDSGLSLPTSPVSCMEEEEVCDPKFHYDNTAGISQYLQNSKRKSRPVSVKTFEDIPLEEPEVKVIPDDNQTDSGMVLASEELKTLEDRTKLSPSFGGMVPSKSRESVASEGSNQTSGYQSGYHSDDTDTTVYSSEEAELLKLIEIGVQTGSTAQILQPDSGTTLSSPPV
Put plainly: KINOMEscan ScanTK. The class given is binding.

For assay [2], the target named is T2, EPHA5 (Homo sapiens, UniProt P54756).
T2 construct: purchased Eurofins DiscoverX KINOMEscan (scanTK)
T2 sequence (P54756 25-1037): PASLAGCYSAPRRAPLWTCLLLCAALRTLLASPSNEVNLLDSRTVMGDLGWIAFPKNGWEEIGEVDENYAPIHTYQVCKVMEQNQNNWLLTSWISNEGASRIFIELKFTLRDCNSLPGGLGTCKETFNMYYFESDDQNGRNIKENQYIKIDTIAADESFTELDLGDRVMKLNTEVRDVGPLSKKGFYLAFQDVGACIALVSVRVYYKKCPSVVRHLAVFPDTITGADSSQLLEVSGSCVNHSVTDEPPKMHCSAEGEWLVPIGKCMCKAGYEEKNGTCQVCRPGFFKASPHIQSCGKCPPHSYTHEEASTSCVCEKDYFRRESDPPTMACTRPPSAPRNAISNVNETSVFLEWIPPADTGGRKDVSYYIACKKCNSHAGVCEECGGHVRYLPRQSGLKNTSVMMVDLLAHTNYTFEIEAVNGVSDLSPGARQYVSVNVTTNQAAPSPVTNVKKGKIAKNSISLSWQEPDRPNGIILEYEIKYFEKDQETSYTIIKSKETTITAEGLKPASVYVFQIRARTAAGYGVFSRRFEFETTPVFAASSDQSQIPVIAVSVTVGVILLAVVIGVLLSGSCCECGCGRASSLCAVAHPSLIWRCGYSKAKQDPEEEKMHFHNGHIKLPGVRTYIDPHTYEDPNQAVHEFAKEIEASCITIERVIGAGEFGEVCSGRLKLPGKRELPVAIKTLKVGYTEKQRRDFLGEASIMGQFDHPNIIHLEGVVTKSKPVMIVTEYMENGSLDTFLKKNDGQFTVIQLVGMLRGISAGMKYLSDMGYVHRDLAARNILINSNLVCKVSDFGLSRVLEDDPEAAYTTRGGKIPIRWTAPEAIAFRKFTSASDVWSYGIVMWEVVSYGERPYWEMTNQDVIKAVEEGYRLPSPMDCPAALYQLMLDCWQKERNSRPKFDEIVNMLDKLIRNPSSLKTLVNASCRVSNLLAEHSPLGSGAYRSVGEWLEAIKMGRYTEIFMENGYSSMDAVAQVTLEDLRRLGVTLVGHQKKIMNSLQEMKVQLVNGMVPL
Put plainly: KINOMEscan ScanTK. The format is binding.

Assay [3] deals with T3, EPHA6 (Homo sapiens, UniProt Q9UF33).
T3 construct: purchased Eurofins DiscoverX KINOMEscan (scanTK)
T3 sequence (Q9UF33 23-1036): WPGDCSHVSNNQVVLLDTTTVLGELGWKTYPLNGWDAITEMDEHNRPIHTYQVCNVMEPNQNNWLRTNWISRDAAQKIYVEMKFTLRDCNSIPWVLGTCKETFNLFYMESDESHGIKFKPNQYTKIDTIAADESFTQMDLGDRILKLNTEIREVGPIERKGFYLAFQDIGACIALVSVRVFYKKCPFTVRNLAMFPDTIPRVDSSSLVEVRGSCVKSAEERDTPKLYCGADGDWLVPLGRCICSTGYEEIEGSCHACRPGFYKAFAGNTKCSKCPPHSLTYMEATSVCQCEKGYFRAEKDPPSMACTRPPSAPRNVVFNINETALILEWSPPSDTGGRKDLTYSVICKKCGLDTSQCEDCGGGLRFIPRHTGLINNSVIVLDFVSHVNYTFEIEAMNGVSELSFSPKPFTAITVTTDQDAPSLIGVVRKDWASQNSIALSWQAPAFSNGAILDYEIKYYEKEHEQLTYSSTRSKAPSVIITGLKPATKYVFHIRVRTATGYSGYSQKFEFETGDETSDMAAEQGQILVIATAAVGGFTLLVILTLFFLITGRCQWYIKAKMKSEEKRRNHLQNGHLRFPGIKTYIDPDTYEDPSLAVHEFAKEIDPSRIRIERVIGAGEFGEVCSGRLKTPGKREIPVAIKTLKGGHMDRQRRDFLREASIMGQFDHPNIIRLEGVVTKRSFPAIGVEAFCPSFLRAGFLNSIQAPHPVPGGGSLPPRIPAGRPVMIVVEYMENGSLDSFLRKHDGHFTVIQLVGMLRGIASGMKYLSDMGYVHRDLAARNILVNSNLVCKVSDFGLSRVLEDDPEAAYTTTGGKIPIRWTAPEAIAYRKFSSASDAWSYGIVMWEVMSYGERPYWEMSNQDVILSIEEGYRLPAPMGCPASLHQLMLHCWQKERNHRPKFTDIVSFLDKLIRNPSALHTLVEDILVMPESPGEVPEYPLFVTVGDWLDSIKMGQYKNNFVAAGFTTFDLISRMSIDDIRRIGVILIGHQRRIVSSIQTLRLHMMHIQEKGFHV
Put plainly: KINOMEscan ScanTK. The format is binding.

For assay [4], the target named is T4, ALK(C1156Y) (Homo sapiens, UniProt Q9UM73, C1156Y).
T4 construct: purchased Eurofins DiscoverX KINOMEscan (scanTK)
Kind of assay: KINOMEscan ScanTK. The class given is binding.

Assay [5] deals with T5, ALK (Homo sapiens, UniProt Q9UM73).
T5 construct: purchased Eurofins DiscoverX KINOMEscan (scanTK)
Put plainly: KINOMEscan ScanTK. The format is binding.

In assay [6] the target is T6, LYN (Homo sapiens, UniProt P07948).
T6 construct: purchased Eurofins DiscoverX KINOMEscan (scanTK)
T6 sequence (P07948 whole entry): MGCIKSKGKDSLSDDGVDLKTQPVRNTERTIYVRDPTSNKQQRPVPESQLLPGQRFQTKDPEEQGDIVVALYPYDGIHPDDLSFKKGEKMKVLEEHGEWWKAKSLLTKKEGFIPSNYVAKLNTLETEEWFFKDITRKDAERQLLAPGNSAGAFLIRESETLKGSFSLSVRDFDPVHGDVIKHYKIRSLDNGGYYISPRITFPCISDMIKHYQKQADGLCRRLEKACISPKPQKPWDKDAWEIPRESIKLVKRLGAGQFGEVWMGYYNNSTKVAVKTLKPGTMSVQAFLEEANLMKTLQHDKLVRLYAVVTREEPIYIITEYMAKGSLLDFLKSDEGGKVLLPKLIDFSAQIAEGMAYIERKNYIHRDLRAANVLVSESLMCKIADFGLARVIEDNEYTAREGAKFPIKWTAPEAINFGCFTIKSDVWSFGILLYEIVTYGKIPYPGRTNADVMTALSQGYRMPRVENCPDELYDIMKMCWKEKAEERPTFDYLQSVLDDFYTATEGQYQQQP
Kind of assay: KINOMEscan ScanTK. The format is binding.

For assay [7], the target named is T7, EPHB4 (Homo sapiens, UniProt P54760).
T7 construct: purchased Eurofins DiscoverX KINOMEscan (scanTK)
T7 sequence (P54760 16-987): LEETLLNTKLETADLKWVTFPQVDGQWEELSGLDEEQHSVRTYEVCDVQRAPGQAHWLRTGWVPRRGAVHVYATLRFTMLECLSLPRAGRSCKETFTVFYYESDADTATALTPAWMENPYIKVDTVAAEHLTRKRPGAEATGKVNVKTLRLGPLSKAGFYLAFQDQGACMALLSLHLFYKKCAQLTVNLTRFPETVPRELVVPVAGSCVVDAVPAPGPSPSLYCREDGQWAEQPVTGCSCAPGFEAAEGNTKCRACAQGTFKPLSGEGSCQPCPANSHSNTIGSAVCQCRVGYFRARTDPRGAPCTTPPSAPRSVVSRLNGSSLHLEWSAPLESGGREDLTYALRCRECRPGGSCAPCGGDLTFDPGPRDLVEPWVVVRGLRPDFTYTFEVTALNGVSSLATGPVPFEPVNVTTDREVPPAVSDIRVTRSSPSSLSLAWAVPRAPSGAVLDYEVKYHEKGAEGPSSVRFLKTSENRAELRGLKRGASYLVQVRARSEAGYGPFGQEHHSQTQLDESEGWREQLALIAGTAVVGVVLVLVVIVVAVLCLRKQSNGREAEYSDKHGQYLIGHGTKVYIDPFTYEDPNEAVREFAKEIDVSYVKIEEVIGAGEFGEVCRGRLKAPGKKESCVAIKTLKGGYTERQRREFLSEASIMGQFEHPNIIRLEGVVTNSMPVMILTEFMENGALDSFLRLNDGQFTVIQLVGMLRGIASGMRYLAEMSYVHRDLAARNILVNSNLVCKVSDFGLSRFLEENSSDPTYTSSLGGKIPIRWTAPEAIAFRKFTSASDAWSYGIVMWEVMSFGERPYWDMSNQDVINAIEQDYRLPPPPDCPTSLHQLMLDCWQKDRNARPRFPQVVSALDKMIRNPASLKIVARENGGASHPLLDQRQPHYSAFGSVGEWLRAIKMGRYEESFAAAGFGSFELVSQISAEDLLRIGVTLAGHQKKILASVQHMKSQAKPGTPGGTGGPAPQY
Put plainly: KINOMEscan ScanTK. The format is binding.

The target in assay [8] is T8, ABL1(M351T)-phosphorylated (Homo sapiens, UniProt P00519, M351T).
T8 construct: purchased Eurofins DiscoverX KINOMEscan (scanTK)
Put plainly: KINOMEscan ScanTK. The class given is binding.

For assay [9], the target named is T9, TIE2 (Homo sapiens, UniProt Q02763).
T9 construct: purchased Eurofins DiscoverX KINOMEscan (scanTK)
T9 sequence (Q02763 23-1124): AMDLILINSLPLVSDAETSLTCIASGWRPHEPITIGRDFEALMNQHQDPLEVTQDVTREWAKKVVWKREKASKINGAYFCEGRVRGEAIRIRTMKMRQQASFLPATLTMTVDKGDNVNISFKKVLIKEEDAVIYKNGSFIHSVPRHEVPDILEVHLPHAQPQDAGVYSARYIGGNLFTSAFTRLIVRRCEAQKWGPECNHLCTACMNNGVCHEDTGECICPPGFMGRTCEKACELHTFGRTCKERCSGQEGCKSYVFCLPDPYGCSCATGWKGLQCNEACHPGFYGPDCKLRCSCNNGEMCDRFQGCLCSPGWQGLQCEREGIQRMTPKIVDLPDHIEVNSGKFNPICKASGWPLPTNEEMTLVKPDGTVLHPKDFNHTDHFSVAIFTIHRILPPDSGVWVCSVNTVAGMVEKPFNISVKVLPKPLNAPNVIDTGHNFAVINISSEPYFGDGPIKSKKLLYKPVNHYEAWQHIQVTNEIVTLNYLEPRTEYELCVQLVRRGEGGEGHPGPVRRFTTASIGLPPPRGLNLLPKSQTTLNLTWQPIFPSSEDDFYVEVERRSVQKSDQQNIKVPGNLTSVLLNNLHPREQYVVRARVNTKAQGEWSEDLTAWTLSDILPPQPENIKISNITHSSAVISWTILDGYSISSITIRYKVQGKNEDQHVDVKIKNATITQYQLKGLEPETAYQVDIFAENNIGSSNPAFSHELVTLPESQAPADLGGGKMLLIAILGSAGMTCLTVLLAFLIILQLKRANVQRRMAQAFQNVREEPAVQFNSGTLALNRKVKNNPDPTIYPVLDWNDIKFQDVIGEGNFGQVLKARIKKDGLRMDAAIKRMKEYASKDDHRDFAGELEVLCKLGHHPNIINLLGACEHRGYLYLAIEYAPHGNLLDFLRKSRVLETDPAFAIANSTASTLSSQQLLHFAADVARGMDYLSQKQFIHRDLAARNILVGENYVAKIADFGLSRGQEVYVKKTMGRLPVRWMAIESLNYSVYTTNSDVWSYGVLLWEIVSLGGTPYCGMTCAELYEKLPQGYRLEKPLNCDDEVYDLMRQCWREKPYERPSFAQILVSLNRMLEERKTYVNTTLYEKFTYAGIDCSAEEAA
Kind of assay: KINOMEscan ScanTK. The format is binding.

Assay [10] addresses JAK3, catalytic domain (795–1124) (Homo sapiens, UniProt P52333). Kind of assay: PhosphoSens enzymatic IC50 (AssayQuant).
Source text: Biochemical enzymatic IC50 data were generated by AssayQuant Technologies (Marlborough, MA) using the PhosphoSens Platform. […] Reaction rate versus log [inhibitor concentration] data were fitted to the four-parameter logistic equation [drawing 1]

Chain of JAK3, catalytic domain (795–1124) (P52333 795-1124): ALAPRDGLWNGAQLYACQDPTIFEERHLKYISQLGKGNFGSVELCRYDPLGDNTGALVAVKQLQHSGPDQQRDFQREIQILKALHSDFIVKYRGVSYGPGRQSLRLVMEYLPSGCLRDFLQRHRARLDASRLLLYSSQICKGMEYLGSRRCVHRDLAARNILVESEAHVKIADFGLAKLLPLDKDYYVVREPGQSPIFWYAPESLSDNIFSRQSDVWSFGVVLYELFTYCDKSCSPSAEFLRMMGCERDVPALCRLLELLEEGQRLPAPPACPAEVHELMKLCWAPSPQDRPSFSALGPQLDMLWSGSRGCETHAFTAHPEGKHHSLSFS

Take `C=CC(=O)N1CCC[C@@H](n2nc(-c3ccc(Oc4ccccc4)cc3)c3c(N)ncnc32)C1` [Compound 1g, Ibrutinib, reference compound]: the remaining binding at 1 µM in assay [1] (@1000nM, read-out: %Control) was 71%; in assay [1] (read-out: %Control @1000nM), 71%; in [2] (@1000nM, read-out: %Control), 96%; in assay [2] (read-out: %Control @1000nM), 96%; in assay [3] (@1000nM, read-out: %Control), 77%; in assay [3] (read-out: %Control @1000nM), 77%. In addition, the remaining binding at 1 µM turned out to be 98% in [4] (@1000nM, read-out: %Control); 98% in [4] (read-out: %Control @1000nM); 94% in assay [5] (@1000nM, read-out: %Control); 94% in assay [5] (read-out: %Control @1000nM); 16% in [6] (@1000nM, read-out: %Control); 16% in assay [6] (read-out: %Control @1000nM). In addition, the remaining binding at 1 µM was 100% in assay [7] (@1000nM, read-out: %Control) and 100% in assay [7] (read-out: %Control @1000nM).
For the compound `Cc1cnc(S(C)(=O)=O)nc1N1CCCC(n2nc(-c3ccc(Oc4ccccc4)cc3)c3c(N)ncnc32)C1` (stereo not shown) [Compound 8a, 1-(1-(5-Methyl-2-(methylsulfonyl)pyrimidin-4-yl)piperidin-3-yl)-3-(4-phenoxyphenyl)-1H-pyrazolo[3,4-d]pyrimidin-4-amine], the difference in %Control from compound Ib at 1 µM was 0% in assay [8] (@1000nM), -1% in [2] (@1000nM), 23% in [3] (@1000nM) and 0% in assay [7] (@1000nM). Also, the remaining binding at 1 µM in [8] (@1000nM, read-out: %Control) stood at 65%; in assay [8] (read-out: %Control @1000nM), 65%; in assay [1] (@1000nM, read-out: %Control), 90%; in assay [1] (read-out: %Control @1000nM), 90%; in [2] (@1000nM, read-out: %Control), 95%; in assay [2] (read-out: %Control @1000nM), 95%. For the same compound, the remaining binding at 1 µM in assay [3] (@1000nM, read-out: %Control) amounted to 100%; in [3] (read-out: %Control @1000nM), 100%; in assay [9] (@1000nM, read-out: %Control), 91%; in assay [9] (read-out: %Control @1000nM), 91%; in assay [4] (@1000nM, read-out: %Control), 85%; in assay [4] (read-out: %Control @1000nM) it was 85%. The remaining binding at 1 µM in [5] (@1000nM, read-out: %Control) is 80%; in [5] (read-out: %Control @1000nM), 80%; in assay [6] (@1000nM, read-out: %Control), 21%; in assay [6] (read-out: %Control @1000nM) it was 21%; in assay [7] (@1000nM, read-out: %Control), 100%; in assay [7] (read-out: %Control @1000nM) it was 100%. Besides, the difference in %Control versus compound Ib at 1 µM was -13% in assay [4] (@1000nM) and -14% in [5] (@1000nM). This compound also returned an IC50 in assay [10] above 1000 nM.
In the case of `COC(=O)c1cnc(S(C)(=O)=O)nc1N1CCCC(n2nc(-c3ccc(Oc4ccccc4)cc3)c3c(N)ncnc32)C1` (stereo not shown) [Compound 8b, Methyl 4-(3-(4-Amino-3-(4-phenoxyphenyl)-1H-pyrazolo[3,4-d]pyrimidin-1-yl)piperidin-1-yl)-2-(methylsulfonyl)pyrimidine-5-carboxylate], the difference in %Control from compound Ib at 1 µM is 1% in assay [8] (@1000nM), 4% in assay [2] (@1000nM), 15% in [3] (@1000nM) and -2% in [7] (@1000nM). The remaining binding at 1 µM in assay [8] (@1000nM, read-out: %Control) was determined as 66%; in assay [8] (read-out: %Control @1000nM) it was 66%; in [1] (@1000nM, read-out: %Control), 90%; in [1] (read-out: %Control @1000nM), 90%; in [2] (@1000nM, read-out: %Control), 100%; in assay [2] (read-out: %Control @1000nM), 100%. For the same compound, the remaining binding at 1 µM came out at 92% in [3] (@1000nM, read-out: %Control); 92% in [3] (read-out: %Control @1000nM); 72% in assay [9] (@1000nM, read-out: %Control); 72% in assay [9] (read-out: %Control @1000nM); 90% in assay [4] (@1000nM, read-out: %Control); 90% in assay [4] (read-out: %Control @1000nM). In addition, the remaining binding at 1 µM is 100% in assay [5] (@1000nM, read-out: %Control); 100% in assay [5] (read-out: %Control @1000nM); 49% in assay [6] (@1000nM, read-out: %Control); 49% in [6] (read-out: %Control @1000nM); 98% in assay [7] (@1000nM, read-out: %Control); 98% in assay [7] (read-out: %Control @1000nM). For the same compound, the difference in %Control versus compound Ib at 1 µM in assay [4] (@1000nM) was -8%; in assay [5] (@1000nM), 6%. For the same compound, the IC50 in [10] was above 1000 nM.
`CCOC(=O)c1cnc(S(C)(=O)=O)nc1N1CCC[C@@H](n2nc(-c3ccc(Oc4ccccc4)cc3)c3c(N)ncnc32)C1` [Compound 8c, Ethyl (R)-4-(3-(4-Amino-3-(4-phenoxyphenyl)-1H-pyrazolo[3,4-d]pyrimidin-1-yl)piperidin-1-yl)-2-(methylsulfonyl)pyrimidine-5-carboxylate]: the difference in %Control from compound Ib at 1 µM in assay [8] (@1000nM) was 12%; in [2] (@1000nM), 4%; in assay [3] (@1000nM), 10%; in [7] (@1000nM), -14%. Also, the remaining binding at 1 µM in assay [8] (@1000nM, read-out: %Control) amounted to 77%; in assay [8] (read-out: %Control @1000nM), 77%; in assay [1] (@1000nM, read-out: %Control) it was 94%; in [1] (read-out: %Control @1000nM) it was 94%; in assay [2] (@1000nM, read-out: %Control) it was 100%; in assay [2] (read-out: %Control @1000nM), 100%. For the same compound, the remaining binding at 1 µM in assay [3] (@1000nM, read-out: %Control) turned out to be 87%; in [3] (read-out: %Control @1000nM), 87%; in assay [9] (@1000nM, read-out: %Control), 90%; in assay [9] (read-out: %Control @1000nM) it was 90%; in [4] (@1000nM, read-out: %Control), 90%; in assay [4] (read-out: %Control @1000nM), 90%. Besides, the remaining binding at 1 µM in assay [5] (@1000nM, read-out: %Control) was found to be 69%; in [5] (read-out: %Control @1000nM) it was 69%; in assay [6] (@1000nM, read-out: %Control), 72%; in assay [6] (read-out: %Control @1000nM) it was 72%; in [7] (@1000nM, read-out: %Control) it was 86%; in assay [7] (read-out: %Control @1000nM), 86%. Besides, the difference in %Control versus compound Ib at 1 µM was -8% in assay [4] (@1000nM) and -25% in assay [5] (@1000nM).
